This note sets out measurements from ChEMBL document CHEMBL1152991, “Tetracycline resistance in Ureaplasma spp. and Mycoplasma hominis: prevalence in Bordeaux, France, from 1999 to 2002 and description of two tet(M)-positive isolates of M. hominis susceptible to tetracyclines” (2008).

In brackets after ≈: the same amount, converted by molar mass. Where only a bound is given, the exact number is not on record here.

Common to all, as to format: functional
The subject of test [1] is Metamycoplasma hominis. The test is described as follows: Antimicrobial activity against tetracycline-susceptible Mycoplasma hominis isolate 3430 expressing tet(M) gene after 3 passages of drug treatment.
Test [2] deals with Metamycoplasma hominis. In words: Antimicrobial activity against tetracycline-susceptible Mycoplasma hominis isolate 3430 expressing tet(M) gene after 10 passages of drug treatment.
Test [3] concerns Metamycoplasma hominis. The test is described as follows: Antimicrobial activity against tetracycline-resistant Mycoplasma hominis isolate overexpressing tet(M) gene.
For test [4], the system named is Ureaplasma. The test is described as follows: Antimicrobial activity against tetracycline-resistant Ureaplasma sp. isolate overexpressing tet(M) gene.
Test [5] has as its system Metamycoplasma hominis. The test is described as follows: Antimicrobial activity against tetracycline-susceptible Mycoplasma hominis isolate 3425 expressing tet(M) gene after 20 passages of drug treatment.

For orientation: MIC means the smallest concentration in the dilution series that meets the test's criterion for growth inhibition. A lower MIC goes with a more susceptible organism. `C[C@H]1c2cccc(O)c2C(=O)C2=C(O)[C@]3(O)C(=O)C(C(N)=O)=C(O)[C@@H](N(C)C)[C@@H]3[C@@H](O)[C@@H]21.O` [DOXYCYCLINE]: the MIC is 0.12 mg/L in test [1]; 32 mg/L in test [2]; 32 mg/L in test [3]; > 32 mg/L in test [4]; 0.12 mg/L in test [5].

Take `CN(C)c1ccc(O)c2c1C[C@H]1C[C@H]3[C@H](N(C)C)C(O)=C(C(N)=O)C(=O)[C@@]3(O)C(O)=C1C2=O` [MINOCYCLINE]: the values for the MIC in test [3] and in test [4] were 32 mg/L (≈ 69.9 µM) and > 32 mg/L, respectively.

Turning to `CN(C)[C@@H]1C(O)=C(C(N)=O)C(=O)[C@@]2(O)C(O)=C3C(=O)c4c(O)cccc4[C@@](C)(O)[C@H]3C[C@@H]12` [TETRACYCLINE], the MIC in test [3] is 32 mg/L (≈ 72 µM); in test [4] it was > 32 mg/L.
